In patent publication EP2557075A1, “New triazene compounds for treating cancer” (Trin Therapeutics GmbH, priority 2011, dated 2013):

Tested on: MDA-MB231 Zellen
Assay: Intracellular uptake of triazenes in MDA-MB231 cells (Experiment 2)
Type: in vitro ADME
Details: MDA-MB231, 50.000ng/ml, 50% FCS, 2, 3,5 und 20 Stunden
Description: Es wird gezeigt, dass Verbindungen nach Beispiel 1 schneller und in größerer Menge intrazellulär aufgenommen werden als die als Vergleichssubstanzen eingesetzten Verbindungen nach Präparat 2 und 5 (entsprechend Verbindungen nach Präparat 2 und Beispiel 2a jeweils der WO 2009/004060).
Die getesteten Verbindungen wurden wie folgt gelöst: • Erfindungsgemäße Verbindung: • Beispiel 1: in 20 mg/ml DMSO
Vergleichssubstanzen: • Präparat 2: in 50mg/ml DMSO, • Präparat 5: in 50mg/ml Wasser.
Alle drei Substanzen wurden in einer Dosis von 50.000ng/ml auf 2 x 10^7 HepG2 und HCT-8 sowie 2 x 10^6-MDA-MB231 Zellen gegeben. Als Zellkulturmedium wurde 100% (MDA-MB231: 50%) fötales Kälberserum (FCS) verwendet. Zudem wurde bei den Versuchen mit HepG2 und HCT-8 noch 10.000ng/ml O6-Benzylguanin zugesetzt. Für den Versuch wurde die intrazelluläre Konzentration von Ausgangsprodukt und Metaboliten nach 2, 4 und 20 (HepG2), 2 und 3,5 und 20 Stunden (MDA-MB231) und 2,4, 24 und 48 Stunden (HCT-8) Inkubationszeit ermittelt. Alle drei Substanzen zeigten in Kontrollversuchen mit 100% FCS nach 40 Stunden metabolische Stabilität.

## CN(C)N=Nc1ccc(C(=O)c2ccc(O)cc2)cc1 [Beispiel 1]
  intrazelluläre Konzentration vs. Vergleichssubstanzen: deutlich schneller und in höheren Konzentrationen intrazellulär nachweisbar
